Tests used:
Assay in all cases: relative viability (nuclei count vs DMSO), 5 days (fraction); higher = more cells survive
Kobe2602 + Trametinib = compound: C1=CC(=CC=C1NC(=S)NNC2=C(C=C(C=C2[N+](=O)[O-])C(F)(F)F)[N+](=O)[O-])F [Kobe2602] + CC(=O)Nc1cccc(-n2c(=O)n(C3CC3)c(=O)c3c(Nc4ccc(I)cc4F)n(C)c(=O)c(C)c32)c1 [Trametinib] (partner 0.02 µM)
Procedure, shortened: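 Relative viability was taken as the ratio of nuclei in treated wells to nuclei in vehicle wells. Lung cancer cell lines in 1536-well plates received compounds by pin tool one day after seeding, either one drug alone or a fixed anchor-drug dose plus five library-drug doses (not always all listed) in √10 steps. Nuclei were counted on 4× images after 5 days of treatment, and values are medians of duplicate plates.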

Kobe2602 = compound: C1=CC(=CC=C1NC(=S)NNC2=C(C=C(C=C2[N+](=O)[O-])C(F)(F)F)[N+](=O)[O-])F [Kobe2602]
Procedure, shortened: (§1)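 A plate was accepted only when its control CV was below 25% and the cells had doubled at least once. Viability is defined from nuclear counts as treated wells divided by vehicle wells, with the median taken across plates. That median covers lung cancer cell lines grown in 1536-well plates, dosed by pinning at five √10-spaced library-drug concentrations, and counted in MetaXpress from 4× Hoechst images after 5 days.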

Cabozantinib = compound: COc1cc2nccc(Oc3ccc(NC(=O)C4(C(=O)Nc5ccc(F)cc5)CC4)cc3)c2cc1OC [Cabozantinib]
Procedure, shortened: as §1

Zosuquidar = compound: O[C@@H](COc1cccc2ncccc12)CN1CCN([C@@H]2c3ccccc3[C@@H]3[C@H](c4ccccc42)C3(F)F)CC1 [Zosuquidar]
Procedure, shortened: as §1

Cell Line	relative viability (Kobe2602 + Trametinib; first compound 0.2 µM)	relative viability (Kobe2602 + Trametinib; first compound 0.6325 µM)	relative viability (Kobe2602 + Trametinib; first compound 2 µM)	relative viability (Kobe2602 + Trametinib; first compound 20 µM)	relative viability (Kobe2602; 0.2 µM)	relative viability (Kobe2602; 0.6325 µM)	relative viability (Kobe2602; 2 µM)	relative viability (Kobe2602; 6.325 µM)	relative viability (Kobe2602; 20 µM)	relative viability (Cabozantinib; 0.02 µM)	relative viability (Cabozantinib; 0.06325 µM)	relative viability (Cabozantinib; 0.2 µM)	relative viability (Cabozantinib; 0.6325 µM)	relative viability (Cabozantinib; 2 µM)	relative viability (Zosuquidar; 0.01 µM)	relative viability (Zosuquidar; 0.03162 µM)	relative viability (Zosuquidar; 0.1 µM)	relative viability (Zosuquidar; 0.3162 µM)	relative viability (Zosuquidar; 1 µM)	relative viability (Kobe2602 + Trametinib; first compound 6.325 µM)
NCI-H727	0.417	0.408	0.355	0.371	1.07	0.952	0.878	0.85	0.938	0.852	1.05	0.808	0.912	0.961	0.971	1.06	0.8	1.13	1.01	
NCI-H1993	0.516	0.489	0.429	0.476	0.877	0.993	0.876	0.792	0.87	0.681	0.787	0.584	0.734	0.788	0.925	0.879	0.685	1.06	0.826	0.507
LK-2	0.839	0.856	0.744	0.852	1.14	1.12	0.974	0.887	1.19	0.764	1.26	0.924	0.927	0.926	0.997	1.03	0.934	1.11	1.01	0.631
SW 1573	0.67	0.677	0.46	0.155	0.933	1.02	0.915	0.883	0.907	0.984	1.05	1.01	0.979	0.819	0.925	1	1.03	1.07	0.934	0.458
NCI-H1915	0.291	0.312	0.292	0.346	0.998	1.08	0.987	0.985	1	0.994	1.03	1.02	0.996	0.994	0.986	1.04	0.926	1.04	1.01	0.312
NCI-H661	0.554	0.594	0.594	0.522	1	0.952	0.983	0.991	1.02	0.986	1.03	1.01	1.02	1.06	0.945	0.976	0.91	1.03	0.982	0.622
NCI-H520	0.682	0.642	0.744	0.788	1.01	1.09	0.966	0.936	0.957	1.05	0.959	0.962	0.953	0.951	0.986	1.04		1.08	1.05	0.644
COR-L 105	0.378	0.49	0.417	0.402	0.899	1.06	0.858	0.985	0.914	0.844	0.991		0.888	0.857	0.955	0.841	0.796	1.04	0.905	0.395
NCI-H2009	0.297	0.373	0.332	0.274	1.02	1.08	0.966	1.04	0.99	1.08	1.06	1.08	1.07	1.15	1.02	0.945	0.929	1.06	0.971	0.305
NCI-H1563					0.899	1	0.96	0.971	0.981	0.99	0.977	1.04	0.915	1.01	0.936	0.929	0.974	1.13	0.865	
RERF-LC-KJ	0.839	0.836	0.864	0.525	0.981	0.943	0.959	0.9	0.906	1.02	1.1	0.935	0.996	0.994	0.943	1.03	1.03	1.04	0.971	0.802
NCI-H1703					0.831	1.08	0.83	0.898	0.727	0.57	0.662	0.325	0.262	0.233	1.07	1.14	0.993	1.12	1.01	
EBC-1					0.956	1.05	0.957	0.93	0.984	1.04	0.901	0.227	0.174	0.165	1.05	1.01	0.956	1.11	0.929	
ABC-1					0.941	1.1	0.769	1.06	1.04	0.902	1.05	0.993	0.875	0.887	0.926	0.841	1.04	0.986	0.911	
A549					0.946	0.965	0.975	0.929	0.97	0.981	1.01	0.991	0.941	0.907	0.895	0.802	0.935	1.09	0.98	
NCI-H1299					0.977	1.06	1.02	1.04	0.994	1.03	1.08	1.03	1.05	1.08	1.02	0.989	1.04	1.01	1	
NCI-H1623					1.04	1	1.03	0.9	0.933	0.959	1.13	0.731	1	0.972	0.98	0.898	0.879	1	1.02	
Calu-6					0.992	1.05	1.01	1.01	0.929	1.14	1.08	0.977	0.987	0.954	0.993	0.989	1.11	1.04	1.06	
